Results on 17 molecules are retold here after PMC6044835, “Expression, Purification, and Biochemical Characterization of the Flavocytochrome P450 CYP505A30 from Myceliophthora thermophila” (ACS Omega, 2017).

Values joined by “and” are separate entries in the source; they are usually repeats but may differ in a detail not shown here. Identical values can stand only once. Like-named read-outs stand apart in the source and are kept apart here.

The target in data set [1] is T1, CYP505A30 heme domain (Thermothelomyces thermophilus, UniProt G2QDZ3). The data set can be described thus: UV–visible spectral binding titration with CYP505A30 heme domain. To be noted: for HS (%): extent of HS heme iron accumulated, heme domain, estimated to nearest 5%.
Data set [2] concerns the target T2, CYP505A30 (Thermothelomyces thermophilus, UniProt G2QDZ3). The data set can be described thus: UV–visible spectral binding titration with intact CYP505A30. The following applies: for HS (%): extent of HS heme iron accumulated, intact CYP505A30, estimated to nearest 5%.
Data set [3] deals with T2, CYP505A30.
Data set [4] deals with T1, CYP505A30 heme domain.
Data set [5] concerns the target T2, CYP505A30. The data set can be described thus: Steady-state fatty acid-dependent NADPH oxidation.
The target in data set [6] is T2, CYP505A30. To be noted: for kcat: reduction of the electron acceptor, 25 °C.
The target of data set [7] is T2, CYP505A30. In words: Stopped-flow kinetics of flavin reduction by NAD(P)H. Type of data set: biochemical, Myceliophthora thermophila.
Data set [8] concerns the target T2, CYP505A30. In words: UV-visible spectral binding titration of imidazole-type inhibitors (Soret red shift by distal heme iron coordination) to intact CYP505A30 in 50 mM potassium phosphate pH 7.0 (25 °C stated for the substrate titrations), hyperbolic fit for bifonazole. On the set-up: gene MYCTH_101224; intact CYP505A30, amino acids 1-1080, N-terminal hexahistidine tag (pET15b), expressed in E. coli. To be noted: read-out: KD values (azole/imidazole inhibitors). The text has this: Figure 5 UV–visible spectroscopic analysis of CYP505A30 and its heme domain. […] The sodium dithionite-reduced ferrous form (dotted line) has its Soret maximum at 411 nm and a single visible region absorbance band at 546 nm. The ferrous, CO-bound form (thin solid line) has its Soret maximum at 450 nm and a visible band at 550 nm. The ferric heme NO-bound form (dashed line) has a Soret maximum at 434 nm and visible region bands at 543 and 573 nm. […] For clarity, the visible region is also shown at 5× magnification. […] The substrate-free heme domain (4.9 μM) is shown with a thick solid line. […] Each ΔAbs point is derived from the value of the difference peak absorbance maximum (at 388 nm) minus the difference trough absorbance minimum (at 417 nm). […]
The wavelengths of the absorbance minimum and maximum were identified from the difference spectra, and a maximal induced absorbance change (ΔAmax) at each point in the titration was determined by subtracting the absorbance at the wavelength minimum from that at the absorbance maximum, using the same wavelength pair throughout each titration. ΔAmax values were then plotted against ligand concentration, and data were fitted using either a hyperbolic (Michaelis–Menten) function or the Morrison function for tight-binding ligands, to determine dissociation constants (KD values), as described previously.[38],[52]

Data set [9] deals with Myceliophthora thermophila flavocytochrome P450 CYP505A30 (P450-CPR fusion enzyme), intact (Myceliophthora thermophila). The data set can be described thus: SEC-MALS; 5 mg protein samples in buffer A (50 mM potassium phosphate, pH 7.0) containing 200 mM KCl; integrated Superdex 200 gel filtration followed at once by a DAWN EOS MALLS detector; monomer and dimer of the intact enzyme. In general terms: SEC sorts molecules by how far they enter the pores of the column.

For data set [10], the target named is T2, CYP505A30. The following applies: CYP505A30, GC–MS.
For data set [11], the system named is P450 BM3. The following applies: P450 BM3, similar conditions; cited from earlier work.
Data set [12] deals with P450 BM3. Also on record: method as in PMID 1727637. The following applies: cited from earlier work.
Substrate in data set [13]: CCCCCCCCCCCC(=O)O
The data set can be described thus: purified protein, by the assay type. To be noted: other: fatty acid-induced NADPH oxidation, 25 °C.

Substrate in data set [14]: CCCCC/C=C\C/C=C\C/C=C\C/C=C\CCCC(=O)O
The data set can be described thus: purified protein, by the assay type. To be noted: other: fatty acid-induced NADPH oxidation, 25 °C.

Substrate in data set [15]: CCCCCCCCCCCCCC(=O)O
The data set can be described thus: purified protein, by the assay type. The following applies: other: fatty acid-induced NADPH oxidation, 25 °C.

Substrate in data set [16]: CCCCCCCCCCCCCCC(=O)O
In words: purified protein, by the assay type. The following applies: other: fatty acid-induced NADPH oxidation, 25 °C.

The mark [17] stands for this setting: fatty acid-induced NADPH oxidation, 25 °C, 200 μM NADPH.
[18] abbreviates: KD, substrate binding to intact CYP505A30, heme absorbance change, 25 °C.
The mark [19] stands for this setting: fatty acid-dependent NADPH oxidation.

Regarding `CCCCCCCCCCCCCCCC(=O)NCC(=O)O` [N-palmitoylglycine], the “HS (%)” value at CYP505A30 heme domain [1] was 75%; at CYP505A30 [2] it was 95%.
In the case of `CCCCCCCCCCCCC(=O)O` [tridecanoic acid], the “HS (%)” value is given as 65% on CYP505A30 [3] and 30% on CYP505A30 heme domain [4]. Besides, the Kd at CYP505A30 heme domain [1] came out at 4.8 ± 0.3 µM; on CYP505A30 [2] (setting [18]), 2.7 ± 0.3 µM. For the same molecule, the kcat at CYP505A30 [5] (setting [17]) turned out to be 5.0 ± 0.3 s^–1.
In turn, `c1ccc(-n2ccnc2)cc1` [1-phenylimidazole] yielded a Kd on CYP505A30 [2] (KD, imidazole-based inhibitors, distal coordination of heme iron, intact CYP505A30) of 3.4 ± 0.2 µM.
On to `CCCCCCCCCC(=O)O` [decanoic acid], for which the “HS (%)” value at CYP505A30 [3] came to 30%. In addition, the Kd on CYP505A30 [2] (KD) amounted to 21.1 ± 2 µM.
Consider “cytochrome c: Cytochrome c (horse heart; Sigma-Aldrich), electron acceptor substrate for CPR enzymes”, for which the “fold slower kcat than the BM3 enzyme” value with CYP505A30 [6] (BM3 under similar conditions) was “approximately 7.5 fold”. For the same molecule, the Km – broadly, the concentration of substrate that gives half-maximal velocity – with CYP505A30 [6] (read-out: KM (electron acceptor), NADPH as electron donor) amounted to 79.3 ± 10.3 µM. Further, the kcat in the data set with CYP505A30 [6] (NADH as electron donor) was determined as 29.5 ± 2.4 s^–1; with CYP505A30 [6] (NADPH as electron donor), 29.7 ± 0.7 s^–1.
Take `CCCCCCCCCCCCCCCC(=O)O` [hexadecanoic acid]: the values for the Kd at CYP505A30 heme domain [1] and at CYP505A30 [2] (setting [18]) were 1 ± 0.4 µM and 10.5 ± 0.2 µM, respectively. Moreover, the “HS (%)” value on CYP505A30 heme domain [1] is listed as 55%; on CYP505A30 [2], 80%.
For `NC(=O)C1=CN([C@@H]2O[C@H](COP(=O)(O)OP(=O)(O)OC[C@H]3O[C@@H](n4cnc5c(N)ncnc54)[C@H](OP(=O)(O)O)[C@@H]3O)[C@@H](O)[C@H]2O)C=CC1` [NADPH, reduced nicotinamide adenine dinucleotide phosphate], the “gradient of kobs vs temperature” value at CYP505A30 [7] (10 to 35 °C, 1 mM NADPH) worked out at 14.5 ± 1.5 s^–1 °C^–1. Further, the figures for the klim flavin reduction on CYP505A30 [7] (10 °C) and at CYP505A30 [7] (25 °C) were around 82 s^–1 and around 250 s^–1, respectively. Besides, the kobs flavin reduction on CYP505A30 [7] (10 °C, across [NADPH] range up to 1.2 mM) is 82.4 ± 9.1 s^–1. Further, the “kobs flavin reduction (highest rate constant)” value on CYP505A30 [7] (35 °C, 1 mM NADPH) amounted to 441 ± 11 s^–1.
Regarding `CCCCCCCCCCCCCCCCCC(=O)O` [octadecanoic acid], on CYP505A30 heme domain [1], the Kd was 5 ± 0.7 µM and the “HS (%)” value is listed as 10%. At CYP505A30 [2], the Kd turned out to be 11.9 ± 1 µM and the “HS (%)” value was 15%.
Consider `CCCCCCCCCCCCCCCCC(=O)O` [heptadecanoic acid], for which the Kd was 8.7 ± 0.8 µM at CYP505A30 heme domain [1] and 4.1 ± 0.7 µM at CYP505A30 [2]. In addition, the “HS (%)” value is recorded as 20% at CYP505A30 heme domain [1] and 10% at CYP505A30 [2].
Take `CCCCCCCCCCCCCCC(=O)O` [pentadecanoic acid]: at CYP505A30 heme domain [1], the Kd is 1.1 ± 0.3 µM and the “HS (%)” value is given as 90%. For the same molecule, on CYP505A30 [5] (setting [19]), the “KD (Michaelis–Menten fit of steady-state NADPH oxidation)” value stood at 7.8 µM and the kcat is reported as around 450 min^–1. Besides, at CYP505A30 [2], the Kd was 4.4 ± 0.6 µM and the “HS (%)” value is on record as 85%.
For the molecule `c1c[nH]cn1` [imidazole], the Kd at CYP505A30 [8] amounted to 723 µM.
“Myceliophthora thermophila flavocytochrome P450 CYP505A30 (P450-CPR fusion enzyme), intact”: the stoichiometry N (as a rule, the number of molecules, sites or subunits per partner or assembly) in data set [9] turned out to be 2.
At CYP505A30 [7] (10 °C), `NC(=O)C1=CN([C@@H]2O[C@H](COP(=O)(O)OP(=O)(O)OC[C@H]3O[C@@H](n4cnc5c(N)ncnc54)[C@H](O)[C@@H]3O)[C@@H](O)[C@H]2O)C=CC1` [NADH, reduced nicotinamide adenine dinucleotide] gave a klim flavin reduction of 42.0 ± 3.2 s^–1.
`CCCCCCCCCCCCCC(=O)O` [tetradecanoic acid]: the “ω-1 hydroxylated product proportion” value is 63% at CYP505A30 [10], “approximately 63%” on CYP505A30 [10] (listed as myristic acid) and 58% in the data set on P450 BM3 [12]. Besides, the figures for the “ω-2 hydroxylated product proportion” value on CYP505A30 [10] and in the data set with P450 BM3 [12] were around 28% and 21%, respectively. The “ω-3 hydroxylated product proportion” value is recorded as 9% on CYP505A30 [10] and 21% in the data set on P450 BM3 [12]. Also, the kcat with P450 BM3 [11] is reported as 30.8 ± 1.5 s^–1; at CYP505A30 [5] (setting [17]), 1.21 ± 0.1 s^–1. Further, the Kd is 3.9 ± 0.3 µM on CYP505A30 heme domain [1] and 7.4 ± 0.2 µM on CYP505A30 [2] (setting [18]). In addition, the “HS (%)” value on CYP505A30 heme domain [1] is recorded as 85%; at CYP505A30 [2], 80%.
For the molecule `c1ccc(-c2ccc(C(c3ccccc3)n3ccnc3)cc2)cc1` (stereo not shown) [bifonazole], the Kd at CYP505A30 [2] (KD) was 69 µM and 69.1 µM.
At CYP505A30 [2] (KD), `Clc1ccc(COC(Cn2ccnc2)c2ccc(Cl)cc2Cl)cc1` (stereo not shown) [econazole] had a Kd of 10 ± 0.9 µM.

B1: CYP505A30 (Thermothelomyces thermophilus ATCC 42464) (protein)
chain: MADKTTETVPIPGPPGLPLVGNALAFDSELPLRTFQEFAEEYGEIYRLTLPTGTTLVVSSQALVHELCDDKRFKKPVAAALAEVRNGVNDGLFTAREEEPNWGIAHRILMPAFGPASIQGMFTEMHEIASQLALKWARHGPDTPIFVTDDFTRLTLDTLALCTMNFRFNSYYHDELHPFINAMGNFLTESGARAMRPAITSIFHQAANRKYWEDIEVLRKTAQGVLDTRRKHPTNRKDLLSAMLDGVDAKTGQKLSDSSIIDNLITFLIAGHETTSGLLSFAFYLLIKHQDAYRKAQEEVDRVIGKGPIKVEHIKKLPYIAAVLRETLRLCPTIPIINRAAKQDEVIGGKYAVAKDQRLALLLAQSHLDPAVYGETAKQFIPERMLDENFERLNREYPDCWKPFGTGMRACIGRPFAWQEAVLVMAMLLQNFDFVLHDPYYELHYKQTLTTKPKDFYMRAILRDGLTATELEHRLAGNAASVARSGGGGGGPSKPTAQKTSPAEAKPMSIFYGSNTGTCESLAQRLATDAASHGYAAAAVEPLDTATEKLPTDRPVVIITASFEGQPPDNAAKFCGWLKNLEGDELKNVSYAVFGCGHHDWSQTFHRIPKLVHQTMKAHGASPICDEGLTDVAEGNMFTDFEQWEDDVFWPAVRARYGAAGAVAETEDAPGSDGLNIHFSSPRSSTLRQDVREATVVGEALLTAPDAPPKKHIEVQLPDGATYKVGDYLAVLPVNSKESIGRVMRKFQLSWDSHVTIASDRWTALPTGTPVPAYDVLGSYVELSQPATKRGILRLADAAEDEATKAELQKLAGDLYTSEISLKRASVLDLLDRFPSISLPFGTFLSLLPPIRPRQYSISSSPLNDPSRATLTYSLLDSPSLANPSRRFVGVATSYLSSLVRGDKLLVSVRPTHTAFRLPDEDKMGETAIICVGAGSGLAPFRGFIQERAALLAKGTQLAAALLFYGCRSPEKDDLYRDEFDKWQESGAVDVRRAFSRVDSDDTEARGCRHVQDRLWHDREEVKALWDRGARVYVCGSRQVGEGVKTAMGRIVLGEEDAEDAISKWYETVRNDRYATDVFD
On to B1, for which the Km is 21.2 ± 2.4 µM in data set [13], 9.2 ± 0.5 µM in data set [14], 7.7 ± 1.9 µM in [15] and 7.8 ± 2.1 µM in [16]. Besides, the kcat amounted to 4.8 ± 0.2 s⁻¹ in data set [13], 2 ± 0.1 s⁻¹ in data set [14], 1.2 ± 0.1 s⁻¹ in data set [15] and 7.5 ± 0.7 s⁻¹ in data set [16]. Further, the kcat/Km (as a rule, the second-order rate constant that governs catalysis at low substrate concentration) in data set [13] amounted to 230000 M⁻¹ s⁻¹; in data set [14], 220000 M⁻¹ s⁻¹; in data set [15] it was 160000 M⁻¹ s⁻¹; in [16], 960000 M⁻¹ s⁻¹.
